Experimental data from PMC6556873, “Rapid Covalent-Probe Discovery by Electrophile-Fragment Screening” (Journal of the American Chemical Society, 2019).
Read-outs that look alike come from different tables or passages of the source.

What was measured:
[1] = molecular target: T1, BSA (Bos taurus, UniProt P02769); design: Intact protein LC/MS covalent labelling, fragments in pools of five, 200 uM each, 4 °C; conditions: 24 h, 4 °C, pool of five; 200 µM; covalent
T1 construct: gene ALB

[2] = molecular target: T2, NUDT7 (Homo sapiens, UniProt P0C024); design: Intact protein LC/MS covalent labelling, fragments in pools of five, 200 uM each, 4 °C; conditions: 24 h, 4 °C, pool of five; 200 µM; covalent
T2 construct: residues 14-235, E. coli, pNIC28-Bsa4, N-terminal His6 tag removed by TEV, construct 26672 Da
T2 sequence (P0C024 14-235): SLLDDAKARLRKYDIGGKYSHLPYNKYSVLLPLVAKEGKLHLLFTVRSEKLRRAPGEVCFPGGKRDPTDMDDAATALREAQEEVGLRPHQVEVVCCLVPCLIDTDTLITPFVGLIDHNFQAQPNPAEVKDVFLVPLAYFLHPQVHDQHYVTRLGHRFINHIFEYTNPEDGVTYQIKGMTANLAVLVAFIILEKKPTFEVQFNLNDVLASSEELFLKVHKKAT

[3] = molecular target: T3, OTUB2 (OTUB2A) (Homo sapiens, UniProt Q96DC9); design: Intact protein LC/MS covalent labelling, fragments in pools of five, 200 uM each, 4 °C; conditions: 24 h, 4 °C, pool of five; 200 µM; covalent
T3 construct: full length residues 1-234, E. coli BL21(DE3)-R3, His tag removed by TEV, construct 27312 Da
T3 sequence (Q96DC9 1-234): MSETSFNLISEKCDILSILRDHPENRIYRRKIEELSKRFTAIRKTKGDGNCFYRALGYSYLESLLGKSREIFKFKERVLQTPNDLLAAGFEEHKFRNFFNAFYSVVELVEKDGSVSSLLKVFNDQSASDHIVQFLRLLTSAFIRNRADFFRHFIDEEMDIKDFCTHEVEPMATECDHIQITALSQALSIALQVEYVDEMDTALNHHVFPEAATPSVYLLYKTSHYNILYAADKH

[4] = molecular target: T4, PCAF (Homo sapiens, UniProt Q92831); design: Intact protein LC/MS covalent labelling, fragments in pools of five, 200 uM each, 4 °C; conditions: 24 h, 4 °C, pool of five; 200 µM; covalent
T4 construct: gene KAT2B
T4 sequence (Q92831 whole entry, the tested form may be a part): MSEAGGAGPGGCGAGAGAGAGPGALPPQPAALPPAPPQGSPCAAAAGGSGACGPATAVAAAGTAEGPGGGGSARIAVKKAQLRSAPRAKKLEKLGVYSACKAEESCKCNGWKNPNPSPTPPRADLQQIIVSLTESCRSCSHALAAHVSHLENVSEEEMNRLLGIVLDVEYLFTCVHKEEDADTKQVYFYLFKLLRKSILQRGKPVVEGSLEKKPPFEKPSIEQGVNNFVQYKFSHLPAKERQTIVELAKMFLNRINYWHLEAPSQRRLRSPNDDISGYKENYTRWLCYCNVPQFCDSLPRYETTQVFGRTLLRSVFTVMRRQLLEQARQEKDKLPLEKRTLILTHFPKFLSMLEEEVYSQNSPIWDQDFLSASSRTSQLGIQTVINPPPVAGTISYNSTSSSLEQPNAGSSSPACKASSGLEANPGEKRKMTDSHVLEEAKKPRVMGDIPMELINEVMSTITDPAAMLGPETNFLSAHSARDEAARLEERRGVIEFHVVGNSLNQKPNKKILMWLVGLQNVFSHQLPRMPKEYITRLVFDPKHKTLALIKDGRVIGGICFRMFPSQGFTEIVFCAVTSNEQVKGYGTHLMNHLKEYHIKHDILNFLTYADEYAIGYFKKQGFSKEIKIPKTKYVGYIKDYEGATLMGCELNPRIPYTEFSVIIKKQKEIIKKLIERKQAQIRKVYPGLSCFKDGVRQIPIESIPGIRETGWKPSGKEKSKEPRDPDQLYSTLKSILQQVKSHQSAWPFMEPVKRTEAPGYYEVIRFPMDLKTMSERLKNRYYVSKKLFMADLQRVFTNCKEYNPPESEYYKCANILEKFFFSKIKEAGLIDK

[5] = in vitro; design: species or system CCD841, HEK293; conditions: human, hb2 cells, read-out: HB-2 Cells Viability (%)
[6] = in vitro; design: species or system HB2, HEK293; conditions: human, ccd841 cells
[7] = in vitro; design: species or system HB2, CCD841; conditions: human, hek293 cells

T1 sequence (P02769 whole entry, the tested form may be a part): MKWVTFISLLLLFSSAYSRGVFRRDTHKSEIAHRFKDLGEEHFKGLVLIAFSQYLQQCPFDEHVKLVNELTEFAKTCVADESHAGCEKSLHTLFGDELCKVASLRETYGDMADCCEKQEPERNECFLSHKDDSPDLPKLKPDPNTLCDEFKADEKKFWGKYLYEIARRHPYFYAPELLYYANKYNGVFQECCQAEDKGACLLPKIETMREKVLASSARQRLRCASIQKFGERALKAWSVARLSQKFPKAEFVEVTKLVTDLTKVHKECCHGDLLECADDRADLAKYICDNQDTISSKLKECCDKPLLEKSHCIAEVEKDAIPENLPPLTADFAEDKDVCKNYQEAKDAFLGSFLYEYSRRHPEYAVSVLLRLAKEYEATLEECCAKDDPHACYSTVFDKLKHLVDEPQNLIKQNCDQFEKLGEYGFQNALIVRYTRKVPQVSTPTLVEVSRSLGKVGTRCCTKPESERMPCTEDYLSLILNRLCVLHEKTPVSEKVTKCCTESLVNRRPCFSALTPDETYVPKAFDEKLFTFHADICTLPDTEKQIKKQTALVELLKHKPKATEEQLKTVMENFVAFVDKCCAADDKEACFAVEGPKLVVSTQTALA

Row | SMILES | BSA [1] | NUDT7 [2] | OTUB2 [3] | PCAF [4] | viability at 48 h, 10 µM [5] | viability at 48 h, 10 µM [6] | viability at 48 h, 10 µM [7]
1 | O=C(CCl)N1CCCc2cc(S(=O)(=O)N3CCCC3)ccc21 [PCM-0102625] | 0 | 0 | 0 | 0 | 5.4% | 12.2% | 2.5%
2 | C=CC(=O)Nc1ccc(C)cn1 [PCM-0102627] | 0 | 0 | 0 | 0 | 96.7% | 84.1% | 78.8%
3 | Cc1ccc(S(=O)(=O)N2CCN(C(=O)CCl)CC2)c(C)c1 [PCM-0102628] | 0 | 0 | 0 | 0 | 35.6% | 82.6% | 82.4%
4 | C=CC(=O)N1CCOc2ccccc21 [PCM-0102629] | 0 | 0 | 0 | 0 | 80.9% | 86.1% | 71.1%
5 | Cc1nc(CN2CCN(C(=O)CCl)CC2)cs1 [PCM-0102630] | 0 | 0 | 0 | 0 | 92% | 79.3% | 67.4%
6 | C=CC(=O)N1CCN(C)CC1 [PCM-0102634] | 0 | 0 | 0 | 0 | 99.6% | 114% | 131%
7 | CN(Cc1cccs1)C(=O)CCl [PCM-0102636] | 0 | 0.17 | 0 | 0 | 11.3% | 57.7% | 7%
8 | C=CC(=O)N1CCC(S(=O)(=O)C(C)C)CC1 [PCM-0102637] | 0 | 0 | 0 | 0 | 98.6% | 119% | 102%
9 | Cc1cc(N2CCN(C(=O)CCl)CC2)nc(C(C)C)n1 [PCM-0102638] | 0.11 | 0 | 0 | 0 | 97.7% | 107% | 89.8%
10 | C=CC(=O)Nc1ccnn1-c1ccccc1C [PCM-0102643] | 0 | 0.12 | 0 | 0 | 87.4% | 88.7% | 64.4%
11 | C=CC(=O)NCC1CCN(C)c2ccccc21 (stereo not drawn) [PCM-0102644] | 0 | 0 | 0 | 0 | 106% | 98.5% | 73%
12 | C=CC(=O)NC1CCOC2(CCS(=O)(=O)C2)C1 (stereo not drawn) [PCM-0102645] | 0 | 0 | 0 | 0 | 102% | 115% | 110%
13 | C=CC(=O)N(C1CC1)C1CC(=O)NC1=O (stereo not drawn) [PCM-0102646] | 0 | 0 | 0 | 0 | 103% | 98.4% | 94.9%
14 | C=CC(=O)NCC1CCOCO1 (stereo not drawn) [PCM-0102648] | 0.2 | 0 | 0 | 0 | 102% | 104% | 88.8%
15 | C=CC(=O)N1CC2CC3CC2C1C3OC (stereo not drawn) [PCM-0102649] | 0 | 0 | 0.15 | 0 | 107% | 118% | 117%
16 | C=CC(=O)N1CCc2c([nH]c3ccccc23)C1 [PCM-0102650] | 0 | 0.14 | 0 | 0 | 100% | 107% | 85.6%
17 | CCNC(=O)NC(=O)CCl [PCM-0102654] | 0 | 0 | 0 | 0 | 90.8% | 92.6% | 82.2%

Second part, led by results:

Row | BSA [1] | NUDT7 [2] | OTUB2 [3] | PCAF [4] | SMILES | viability at 48 h, 10 µM [5] | viability at 48 h, 10 µM [6] | viability at 48 h, 10 µM [7]
18 | 0 | 0 | 0 | 0 | CCOC(=O)C1CCN(C(=O)CCl)CC1 [PCM-0102656] | 86% | 90.3% | 69.4%
19 | 0 | 0.06 | 0.2 | 0 | Cc1c(Cl)cnc(NC(=O)CCl)c1Cl [PCM-0102657] | 101% | 98.2% | 99.6%
20 | 0 | 0.39 | 0 | 0 | O=C(CCl)N1N=C(c2ccco2)CC1c1ccsc1 (stereo not drawn) [PCM-0102659] | 15.3% | 15.6% | 3.5%
21 | 0.21 | 0 | 0.29 | 0 | CC1CCCC(NC(=O)CCl)C1C (stereo not drawn) [PCM-0102663] | 98.5% | 104% | 87.3%
22 | 0 | 0 | 0 | 0 | CC(C#N)(NC(=O)CCl)C1CC1 (stereo not drawn) [PCM-0102664] | 99.7% | 89.6% | 80.8%
23 | 0 | 0 | 0.53 | 0 | Cc1cc(NC(=O)CCl)n(-c2ccc(F)cc2)n1 [PCM-0102665] | 57% | 67.6% | 20.6%
24 | 0 | 0.08 | 0.18 | 0 | C=CC(=O)Nc1cccc(Br)c1 [PCM-0102667] | 97.1% | 89.4% | 86.4%
